This note sets out measurements from PMC3481155, “AhR activation underlies the CYP1A autoinduction by A-998679 in rats” (Frontiers in Genetics, 2012).

One data set has as its system Cyp1a1. As to the kind of experiment: Cyp1a1 mRNA in rat liver after 5 days of dosing (microarray, RT-PCR). It counts as in vivo. The protocol:
(§1) All animal experiments were conducted in accordance with the Guiding Principles in the Use of Animals in Toxicology (http://www.toxicology.org/ai/air/air6.asp) and were approved by Abbott's Institutional Animal Care and Use Committee (IACUC). Male Sprague-Dawley rats [Crl:CD®(SD)IGS BR], weighing ~250 g at study initiation were obtained from Charles River Laboratories, Inc. (Wilmington, MA). Rats were housed singly in ventilated, stainless steel, wire-bottom hanging cages and fed non-certified Rodent Chow (Harlan Labs, Madison, WI), and water ad libitum and acclimated for at least 5 days after arrival. […] Serum clinical chemistry parameters were quantified using an Aeroset Clinical Chemistry Analyzer (Abbott Laboratories, Abbott Park, IL) and included alanine amino transferase (ALT), aspartate amino transferase (AST), gamma glutamyltransferase (GGT), and alkaline phosphatase (ALP) activities.
(§2) Frozen liver or jejunum were immediately added to 4 ml of TRIzol reagent (Invitrogen Life Technologies) and homogenized using a Polytron 300D homogenizer (Brinkman Instruments, Westbury, NY). […] Nucleic acid concentration was determined by OD 260 nm (Smart-Spec, Bio-Rad Laboratories, Hercules, CA), and RNA integrity was evaluated using an Agilent 2100 bioanalyzer (Agilent Technologies, Foster City, CA). […]

A further data set has as its system AhR gene battery. The data set can be described thus: Rat liver mRNA profiling of the AhR gene battery. It counts as in vivo. To be noted: 5 days. The protocol: as §1, §2
The next data set concerns the target T1, rat Cyp1a1 (Rattus norvegicus, UniProt P00185).
T1 construct: purchased BD Gentest; host or cells: baculovirus infected insect cells
As to the kind of experiment: Recombinant rat Cyp phenotype profiling, 1A1. It counts as in vitro ADME. To be noted: recombinant rat Cyp 1A1 (200 pmol/ml), 60 min. The protocol:
(§3) Identification of the drug metabolizing enzymes (DMEs) of A-998679 was studied in cDNA expressed recombinant enzymes prepared from baculovirus infected insect cells over-expressing rat Cyp isoforms (BD Gentest, Woburn, MA) as listed in Table 2. Incubations were conducted in duplicate using Supersomes. The incubation mixture contained 100 pmol/ml of enzymes, except for Cyp1a1 (200 pmol/ml), 0.1 or 0.21 μM of [^3H]A-998679 in 100 mM phosphate buffer (pH 7.4). Reactions were initiated with the addition of NADPH at a final concentration of 1 mM and incubated at 37°C for 60 min. At the end of the incubation period, the incubations were terminated by the addition of acetonitrile/ethanol (50/50, v/v) solution. Insect control samples lacking expressed enzyme were used as negative control. The degree of metabolism of A-998679 was assessed by percent of parent remaining using the radio-HPLC method described below.
(§4) Radiolabeled components from the above assays were profiled following separation by HPLC with on line radioflow detector. The system consisted of an Agilent 1100 Series quaternary pump and autosampler connected to a Packard 500TR flow scintillation detector. The data were processed using the Radiomatic™ Flo-one® software v3.65. The scintillant (Perkin Elmer FLO-SCINT™ III) flow was maintained at 3 ml/min. […]

A further data set concerns the target T2, rat Cyp1a2 (Rattus norvegicus, UniProt P04799).
T2 construct: purchased BD Gentest; host or cells: baculovirus infected insect cells
The data set can be described thus: Recombinant rat Cyp phenotype profiling, 1A2. The class given is in vitro ADME. To be noted: 60 min. As for the experimental part: as §3, §4

The next data set addresses T3, rat Cyp 2A1 (Rattus norvegicus, UniProt P11711).
T3 construct: purchased BD Gentest; host or cells: baculovirus infected insect cells
As to the kind of experiment: Recombinant rat Cyp phenotype profiling, 2A1. It counts as in vitro ADME. The note with it: 60 min. As for the experimental part:
as §3, §4

The next data set deals with T4, rat Cyp 3A1 (Rattus norvegicus, UniProt P04800).
T4 construct: purchased BD Gentest; host or cells: baculovirus infected insect cells
T4 sequence (P04800 whole entry): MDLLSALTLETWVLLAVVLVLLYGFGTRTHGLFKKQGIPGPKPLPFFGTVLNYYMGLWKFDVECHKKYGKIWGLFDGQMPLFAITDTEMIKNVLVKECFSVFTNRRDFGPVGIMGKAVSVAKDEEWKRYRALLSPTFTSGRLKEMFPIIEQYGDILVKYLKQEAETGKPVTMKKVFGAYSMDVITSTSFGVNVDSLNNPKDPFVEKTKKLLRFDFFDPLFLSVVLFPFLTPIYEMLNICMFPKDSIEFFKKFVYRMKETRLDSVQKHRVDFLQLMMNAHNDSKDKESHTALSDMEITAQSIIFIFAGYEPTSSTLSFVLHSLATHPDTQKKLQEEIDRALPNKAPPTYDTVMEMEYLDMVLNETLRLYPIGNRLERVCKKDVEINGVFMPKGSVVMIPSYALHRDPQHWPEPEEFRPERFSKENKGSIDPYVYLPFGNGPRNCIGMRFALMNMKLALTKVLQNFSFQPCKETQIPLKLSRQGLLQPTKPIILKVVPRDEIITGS
As to the kind of experiment: Recombinant rat Cyp phenotype profiling, 3A1. The note with it: 60 min. It counts as in vitro ADME. The protocol:
as §3, §4

T3 sequence (P11711 whole entry): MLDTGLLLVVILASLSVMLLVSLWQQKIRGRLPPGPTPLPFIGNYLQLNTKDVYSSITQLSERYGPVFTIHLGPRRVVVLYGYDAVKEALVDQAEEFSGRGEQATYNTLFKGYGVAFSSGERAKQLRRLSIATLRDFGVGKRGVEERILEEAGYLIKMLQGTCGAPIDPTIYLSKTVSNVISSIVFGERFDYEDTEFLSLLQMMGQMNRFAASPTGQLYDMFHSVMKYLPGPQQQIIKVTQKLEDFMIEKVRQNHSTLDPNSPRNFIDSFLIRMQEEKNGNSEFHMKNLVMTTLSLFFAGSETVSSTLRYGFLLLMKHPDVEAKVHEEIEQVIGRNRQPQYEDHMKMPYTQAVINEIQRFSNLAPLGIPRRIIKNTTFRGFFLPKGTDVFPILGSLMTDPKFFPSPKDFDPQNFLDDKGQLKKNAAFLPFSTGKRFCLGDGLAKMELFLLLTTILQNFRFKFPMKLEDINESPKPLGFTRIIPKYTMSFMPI
T1 sequence (P00185 whole entry): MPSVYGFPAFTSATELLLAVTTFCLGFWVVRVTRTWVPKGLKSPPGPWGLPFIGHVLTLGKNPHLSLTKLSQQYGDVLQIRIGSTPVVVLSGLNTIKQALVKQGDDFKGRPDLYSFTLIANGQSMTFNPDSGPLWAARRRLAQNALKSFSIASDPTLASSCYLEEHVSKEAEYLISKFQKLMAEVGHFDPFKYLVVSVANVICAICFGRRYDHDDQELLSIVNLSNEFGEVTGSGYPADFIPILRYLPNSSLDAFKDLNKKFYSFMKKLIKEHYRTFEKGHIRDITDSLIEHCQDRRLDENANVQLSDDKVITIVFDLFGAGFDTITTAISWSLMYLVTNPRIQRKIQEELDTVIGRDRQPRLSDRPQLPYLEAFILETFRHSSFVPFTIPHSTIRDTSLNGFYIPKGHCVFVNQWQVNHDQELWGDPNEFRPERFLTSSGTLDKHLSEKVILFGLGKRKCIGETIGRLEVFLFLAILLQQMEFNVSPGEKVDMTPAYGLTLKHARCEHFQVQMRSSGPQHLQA
T2 sequence (P04799 whole entry): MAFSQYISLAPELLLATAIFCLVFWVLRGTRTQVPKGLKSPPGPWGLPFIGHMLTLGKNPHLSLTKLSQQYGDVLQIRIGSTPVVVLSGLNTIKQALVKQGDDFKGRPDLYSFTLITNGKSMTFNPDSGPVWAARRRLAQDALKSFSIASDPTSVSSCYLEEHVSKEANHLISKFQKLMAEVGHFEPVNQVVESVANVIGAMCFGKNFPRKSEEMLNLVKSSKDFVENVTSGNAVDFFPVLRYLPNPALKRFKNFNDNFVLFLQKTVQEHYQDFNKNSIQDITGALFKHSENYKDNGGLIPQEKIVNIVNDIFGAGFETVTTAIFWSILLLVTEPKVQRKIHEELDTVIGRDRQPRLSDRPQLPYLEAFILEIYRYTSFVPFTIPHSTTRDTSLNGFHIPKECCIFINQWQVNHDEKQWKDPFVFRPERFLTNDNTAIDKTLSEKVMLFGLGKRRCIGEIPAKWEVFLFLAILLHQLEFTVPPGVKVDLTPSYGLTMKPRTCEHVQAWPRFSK

On to `N#Cc1cccc(-c2noc(-c3cccnc3)n2)c1` [A-998679, 3-(5-pyridin-3-yl-1,2,4-oxadiazol-3-yl) benzonitrile], for which the “Cyp1a1 mRNA increase in rat liver (microarray)” value in the data set on Cyp1a1 (5 days of dosing, in at least one animal starting at the 100 mg/kg dose) is given as 10–100 fold. Moreover, the “Cyp1a1 mRNA expression in rat liver (RT-PCR)” value in the data set with Cyp1a1 (5 days, all doses (30, 100, 200 mg/kg/day)) is given as “strongly induced”. Besides, the “expression of members of the AhR gene battery (Gst isoforms, Nqo1, Aldh, AhR) in rat liver” value with AhR gene battery was “upregulated”. Moreover, the “% parent remaining” value at rat Cyp1a1 (0.10 μM) is 0%; on rat Cyp1a1 (0.21 μM) it was 0%; on rat Cyp1a2 (recombinant rat Cyp 1A2, 0.10 μM), 0%; on rat Cyp1a2 (recombinant rat Cyp 1A2, 0.21 μM), 0%; at rat Cyp 2A1 (recombinant rat Cyp 2A1, 0.10 μM), 100%; on rat Cyp 2A1 (recombinant rat Cyp 2A1, 0.21 μM), 100%. The “% parent remaining” value on rat Cyp 3A1 (recombinant rat Cyp 3A1, 0.10 μM) came to 93.9%; at rat Cyp 3A1 (recombinant rat Cyp 3A1, 0.21 μM), 90.3%.
